Experimental data published in patent US20240270748A1 (Merck Patent GmbH, priority 2021, published 2024).
pIC50: −log10 of the molar value.

Key:
[1] = test system: YAP-TEAD interaction; assay: SK-HEP-1 reporter assay (8xTEAD responsive elements driving NanoLuc luciferase); format: cell-based
Procedure, shortened: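 Reporter read-out: NanoLuc luminescence from 8×TEAD elements stably integrated in SK-HEP-1 cells, after 24 h compound exposure at 37° C. Ten concentrations tested in duplicate, top 30 μM final, 0.3% DMSO; IC50 from curve.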

[2] = test system: NCI-H226 cells; assay: Viability assay in NCI-H226 (Yap-dependent) cells, CyQuant; format: cell-based, human; conditions: class symbols
Protocol: (§1) Viability Assay in NCI-H226 (Yap-Dependent) and SW620 Yap KO (Yap Independent) Cells
(§2) The ability of YAP-TEAD inhibitors to inhibit tumor cell growth was evaluated using two different cell lines: NCI-H226, which is a YAP dependent cell line, and SW620 cells, where YAP and TAZ were knocked out using CRISPR to generate a YAP independent cell line.
(§3) For the assay, cells were treated in duplicates with the test compounds in a 10-point dose, 1:3 dilution steps, with the top concentration starting at 30 μM (final concentration in assay). After a 96 hour incubation at 37° C., 95% rH, and 5% CO2, a cell-permeant DNA-binding dye that stains only healthy cells (CyQUANT®, Promega) was added to the cells, allowing the quantification of cell viability.
(§4) Cell Media: The NCI-H226 cells were cultured in the following media: RPMI 1640, +10% FBS, +1× GlutaMAX, +10 mM HEPES, +0.5% Pen/Strep. The SW620-KO cells were cultured in the following media: DMEM/F-12, +10% FBS, +1× GlutaMAX, +10 mM HEPES, +0.5% Pen/Strep.
(§5) Reagents: The reagents used are listed below:
(§6) Cell culture: The cells were examined using an inverted microscope to check for health, cell density, etc. To dissociate adherent cells, the monolayer of cells was washed once with pre-warmed PBS. After removing the PBS, 3 ml pre-warmed Accutase was added to a F75 flask, dispersed evenly and the flask was allowed to sit in incubator for ˜4-5 minutes.
(§7) When a single cell suspension was obtained, 7 ml of prewarmed growth media was added and resuspended with the cells. The cell suspension was transferred to a sterile 15 ml conical centrifuge tube, and spun for 5 min at 300×g, RT. The supernatant was discarded and the pellet was resuspended in 10 ml of pre-warmed growth media.
(§8) The total cell count was determined, and 20 μl of the desired cell number was added to each well of a 384 well plate using a Multidrop Combi. The plates were then incubated for 24 hours at 37° C., 95% rH, and 5% CO2.
(§9) Compound treatment: 24 hours after seeding, the cells were treated with compounds.
(§10) A 1:333 dilution of compounds, diluted in DMSO, was made to get a final concentration of 0.3% DMSO per well. To transfer the compounds to the assay plate, […] was shot from Labcyte low dead volume plates to the cell plates containing 20 μl media/well with the ECHO 555 liquid handling system.
(§11) After treatment, the cells were fed with 20 μl fresh pre-warmed assay media using a Multidrop combi.
(§12) The assay plates were then incubated for 96 h at 37° C., 95% rH, and 5% CO2.
(§13) 96 h after treatment 30 μl of CyQuant® reagent was added to the assay plates using a Multidrop combi in the dark. The plates were then incubated for 1 hour at 37° C., 95% rH and 5% CO2. Thereafter, the assay plates were removed from the incubator and allowed to equilibrate to RT for 30 min in the dark without lid. Finally, they were measured using an EnVision microplate reader with a FITC bottom read program.

[3] = test system: SW620 Yap KO cells; assay: Viability assay in SW620 Yap KO (Yap independent) cells, CyQuant; format: cell-based
Protocol: as §1, §2, §3, §4, §5, §6, §7, §8, §9, §10, §11, §12, §13

[4] = Homo sapiens, SK-HEP1, SK-HEP-1 reporter assay, class symbols
[5] = Homo sapiens, SW-620, 96 h, n.d. = value not detectable below threshold given in parentheses
[6] = Homo sapiens, SW-620, 96 h, n.d. = value not detectable below threshold given in parentheses, ND = not determinable within the entire range
[7] = Homo sapiens, SK-HEP1, SK-HEP-1 reporter assay, n.d. = value not detectable below threshold given in parentheses

| Structure (SMILES) | pIC50 [1, 4] | pIC50 ([2]; Homo sapiens, NCI-H226, 96 h) | pIC50 [3, 5] | pIC50 [3, 6] | also measured |
| --- | --- | --- | --- | --- | --- |
| Cn1nc2c3cc(C(=O)N[C@H](CCO)c4ccccn4)ccc3n(-c3ccc(C(F)(F)F)cc3)c2n1 (single isomer, unassigned) [Example C241] | 7.00 to 8.00 | 6.00 to 7.00 | < 5.52 |  |  |
| Cn1cc2c3cc(CO)ccc3n(-c3ccc(C(F)(F)F)cc3)c2n1 [Example C182, {2-methyl-8-[4-(trifluoromethyl)phenyl]-2H,8H-pyrazolo[3,4-b]indol-5-yl}methanol] | 7.00 to 8.00 | 6.00 to 7.00 | < 4.52 |  |  |
| Cn1cc2c3cc(C(=O)N=[S@](=O)(CCO)Cc4ccncc4)ccc3n(-c3ccc(C(F)(F)F)cc3)c2n1 (single isomer, unassigned) [Example C253] |  | 6.00 to 7.00 |  |  | pIC50 [1, 7]: < 5.19; pIC50 ([3]; Homo sapiens, SW-620, 96 h, class symbols): 5.00 to 6.00 |
| Cn1cc2c3cc(C4CC(Oc5cncnc5)=NO4)ccc3n(-c3ccc(C(F)(F)F)cc3)c2n1 (stereo not drawn) [Example C50, 5-[(5-{2-methyl-8-[4-(trifluoromethyl)phenyl]-2H,8H-pyrazolo[3,4-b]indol-5-yl}-4,5-dihydro-1,2-oxazol-3-yl)oxy]pyrimidine] | 5.00 to 7.00 | 6.00 to 7.00 |  | < 4.52 |  |
| CC(NC(=O)c1ccc2c(c1)c1cn(C)nc1n2-c1ccc(C(F)(F)F)cc1)c1ccn[nH]1 (single isomer, unassigned) [Example C76] |  |  |  |  | pIC50 ([1]; SK-HEP-1 reporter assay, class symbols): 5.00 to 7.00; pIC50 ([2]; 96 h): 7.00 to 9.00; pIC50 ([3]; 96 h, n.d. = value not detectable below threshold given in parentheses, ND = not determinable within the entire range): < 5.49 |
| Cn1cc2c3cc(C(=O)N=[S@](=O)(CCO)Cc4ccccn4)ccc3n(-c3ccc(C(F)(F)F)cc3)c2n1 (single isomer, unassigned) [Example C175] |  | 7.00 to 9.00 | < 5.52 |  | pIC50 [1, 7]: < 5.02 |
| Cc1snc2c1c1cc(C(N)=O)ccc1n2-c1ccc(C(F)(F)F)cc1 [Example C120, 3-methyl-8-[4-(trifluoromethyl)phenyl]-8H-[1,2]thiazolo[3,4-b]indole-5-carboxamide] | 7.00 to 8.00 | 7.00 to 9.00 |  | < 4.52 |  |
| Cn1cc2c3cc(C(=O)N=S(C)(C)=O)ccc3n(-c3ccc(C(F)(F)F)c(F)c3)c2n1 [Example C168, N-[dimethyl(oxo)-lambda6-sulfanylidene]-8-[3-fluoro-4-(trifluoromethyl)phenyl]-2-methyl-2H,8H-pyrazolo[3,4-b]indole-5-carboxamide] | 7.00 to 8.00 | 7.00 to 9.00 | < 5.49 |  |  |
| O=C(O)c1ccc2c(c1)c1cn(C(F)(F)F)nc1n2-c1ccc(C(F)(F)F)cc1 [Example C35, 2-(trifluoromethyl)-8-[4-(trifluoromethyl)phenyl]-2H,8H-pyrazolo[3,4-b]indole-5-carboxylic acid] | 7.00 to 8.00 | 5.00 to 6.00 |  | < 4.52 |  |
| [2H]C1([2H])C(n2c3ccc(C(=O)N[C@@H](CO)c4ccccn4)cc3c3cn(C)nc32)C([2H])([2H])C([2H])([2H])C([2H])([2H])C1([2H])[2H] [Example C196, 8-[(2,2,3,3,4,4,5,5,6,6-^2H10)cyclohexyl]-N-[(1R)-2-hydroxy-1-(pyridin-2-yl)ethyl]-2-methyl-2H,8H-pyrazolo[3,4-b]indole-5-carboxamide] | 5.00 to 7.00 | 6.00 to 7.00 | < 4.52 |  |  |
| Cc1snc2c1c1cc(C(=O)N[C@@H](CO)c3ccccn3)ccc1n2-c1ccc(C(F)(F)F)cc1 [Example C67, N-[(1R)-2-hydroxy-1-(pyridin-2-yl)ethyl]-3-methyl-8-[4-(trifluoromethyl)phenyl]-8H-[1,2]thiazolo[3,4-b]indole-5-carboxamide] | 7.00 to 8.00 | 7.00 to 9.00 |  | < 5.49 |  |
| C[C@@H](NC(=O)c1ccc2c(c1)c1nn(C)nc1n2-c1ccc(C(F)(F)F)cc1)c1ccncc1 [Example C180, 2-methyl-N-[(1R)-1-(pyridin-4-yl)ethyl]-4-[4-(trifluoromethyl)phenyl]-2H,4H-[1,2,3]triazolo[4,5-b]indole-7-carboxamide] | 7.00 to 8.00 | 7.00 to 9.00 | < 4.52 |  |  |
| Cn1nc2c3cc(C(=O)N=[S@](=O)(CCO)Cc4ccccn4)ccc3n(-c3ccc(C(F)(F)F)cc3)c2n1 (single isomer, unassigned) [Example C161] | 7.00 to 8.00 | 7.00 to 9.00 |  | < 5.52 |  |
| Cn1nnc2c3cc(-c4noc(=O)[nH]4)ccc3n(-c3ccc(C(F)(F)F)cc3)c21 [Example C3, 3-{2-methyl-4-[4-(trifluoromethyl)phenyl]-3H,4H-[1,2,3]triazolo[4,5-b]indol-7-yl}-4,5-dihydro-1,2,4-oxadiazol-5-one] | 7.00 to 8.00 | 6.00 to 7.00 |  | < 4.52 |  |
| Cc1snc2c1c1cc(C(=O)N=S(C)(=O)CCO)ccc1n2-c1ccc(C(F)(F)F)cc1 (single isomer, unassigned) [Example C101] | 7.00 to 8.00 | 7.00 to 9.00 |  | < 5.49 |  |

Continued, in another order:

| pIC50 [1, 4] | pIC50 ([2]; Homo sapiens, NCI-H226, 96 h) | pIC50 [3, 5] | pIC50 [3, 6] | Structure (SMILES) | also measured |
| --- | --- | --- | --- | --- | --- |
| 7.00 to 8.00 | 7.00 to 9.00 |  | < 4.52 | Cc1snc2c1c1cc(C(=O)NC3CC3)ccc1n2-c1ccc(C(F)(F)F)cc1 [Example C41, N-cyclopropyl-3-methyl-8-[4-(trifluoromethyl)phenyl]-8H-[1,2]thiazolo [3,4-b]indole-5-carboxamide] |  |
| 5.00 to 7.00 | 7.00 to 9.00 | < 5.52 |  | C[C@H](NC(=O)c1ccc2c(c1)c1nn(C)nc1n2-c1ccc(C(F)(F)F)cc1)c1cccc(N)n1 [Example C183, N-[(1S)-1-(6-aminopyridin-2-yl)ethyl]-2-methyl-4-[4-(trifluoromethyl)phenyl]-2H,4H-[1,2,3]triazolo[4,5-b]indole-7-carboxamide] |  |
| 7.00 to 8.00 | 7.00 to 9.00 |  | < 5.49 | Cc1snc2c1c1cc(C(=O)N[C@H](C)CO)ccc1n2-c1ccc(C(F)(F)F)cc1 [Example C66, N-[(2R)-1-hydroxypropan-2-yl]-3-methyl-8-[4-(trifluoromethyl)phenyl]-8H-[1,2]thiazolo[3,4-b]indole-5-carboxamide] |  |
| 7.00 to 8.00 | 7.00 to 9.00 |  | < 5.52 | Cc1snc2c1c1cc(C(=O)N=S(C)(=O)CCCO)ccc1n2-c1ccc(C(F)(F)F)cc1 (stereo not drawn) [Example C16, N-[(3-hydroxypropyl)(methyl) οχο-λ6-sulfanylidene]-3-methyl-8-[4-(trifluoromethyl)phenyl]-8H-[1,2]thiazolo[3,4-b]indole-5-carboxamide] |  |
| 7.00 to 8.00 | 7.00 to 9.00 |  | < 4.52 | Cc1snc2c1c1cc(C(=O)N=S(C)(=O)CCO)ccc1n2-c1ccc(C(F)(F)F)cc1 (single isomer, unassigned) [Example C102] |  |
| 7.00 to 8.00 | 7.00 to 9.00 | < 4.52 |  | Cn1cc2c3cc(C(=O)O)ccc3n(-c3ccc(C(F)(F)F)c(F)c3)c2n1 [Example C164, 8-[3-fluoro-4-(trifluoromethyl)phenyl]-2-methyl-2H,8H-pyrazolo[3,4-b]indole-5-carboxylic acid] |  |
| 7.00 to 8.00 | 7.00 to 9.00 | < 4.52 |  | Cn1nc2c3cc(C(=O)N=[S@@](C)(=O)CCO)ccc3n(-c3ccc(C(F)(F)F)cc3)c2n1 (single isomer, unassigned) [Example C191] |  |
| 7.00 to 8.00 | 7.00 to 9.00 |  | < 4.52 | CNC(=O)c1ccc2c(c1)c1cn(C)nc1n2-c1ccc(C(F)(F)F)cn1 [Example C147, N,2-dimethyl-8-[5-(trifluoromethyl)pyridin-2-yl]-2H,8H-pyrazolo[3,4-b]indole-5-carboxamide] |  |
| 7.00 to 8.00 | 7.00 to 9.00 |  | < 4.52 | Cc1snc2c1c1cc(C(=O)NC[C@H](C)O)ccc1n2-c1ccc(C(F)(F)F)cc1 [Example C94, N-[(2S)-2-hydroxypropyl]-3-methyl-8-[4-(trifluoromethyl)phenyl]-8H-[1,2]thiazolo[3,4-b]indole-5-carboxamide] |  |
